Measured values from publication PMC6273089, “Secondary Metabolites Produced by an Endophytic Fungus Pestalotiopsis sydowiana and Their 20S Proteasome Inhibitory Activities” (Molecules, 2016).

Target: human erythrocyte 20S proteasome (Homo sapiens, UniProt P28074)
Test: 20S proteasome inhibition assay (chymotrypsin-like activity, Suc-LLVY-AMC substrate)

IC50 [µM] | 20S proteasome inhibitory activity (in words) (chymotrypsin-like activity) | SMILES
7.9 ± 1.8 |  | CCC(O)C[C@H](O)C1CC(OC)=CC(=O)O1 (some centres unmarked) [Compound 10, photipyrone B]
30.5 ± 1.5 |  | COc1c(/C=C/C(C)(C)OC)ccc2c1C(=O)OCc1cc(C)cc(O)c1O2 [Compound 1, 3′-O-methyldehydroisopenicillide]
> 100 |  | COc1c(/C=C/C(C)(C)O)ccc2c1C(=O)OCc1cc(C)cc(O)c1O2 [Compound 4, dehydroisopenicillide]
1.2 ± 0.3 | strong activity | C/C=C(/C)c1cc(OC)cc(=O)o1 [Compound 8, pestalotiopyrone G]
> 100 |  | COc1cc(C(C)(O)C(C)O)oc(=O)c1 (centres unmarked) [Compound 6, pestalotiopyrone D]
18.5 ± 4.2 |  | C=C(C)[C@@H](O)[C@H](O)c1ccc2c(c1OC)C(=O)OCc1cc(C)cc(O)c1O2 [Compound 2, pestalotiollide B]
20.5 ± 2.3 |  | COC1=CC(=O)OC(CO)C1 (centres unmarked) [Compound 5, 6-hydroxymethyl-4-methoxy-5,6-dihydro-2H-pyran-2-one]
8.9 ± 1.5 |  | CCC[C@@H](O)[C@H](O)C1CC(OC)=CC(=O)O1 (some centres unmarked) [Compound 9, LL-P880b]
12.4 ± 1.1 |  | C=C(C)[C@@H](O)[C@@H](O)c1ccc2c(c1OC)C(=O)OCc1cc(C)cc(O)c1O2 [Compound 3, pestalotiollide A]
> 100 |  | COc1cc(C(C)C(C)O)oc(=O)c1 (centres unmarked) [Compound 7, pestalotiopyrone E]
